Data reported in ChEMBL document CHEMBL1649312, “Absence of association between piperaquine in vitro responses and polymorphisms in the pfcrt, pfmdr1, pfmrp, and pfnhe genes in Plasmodium falciparum” (Antimicrob Agents Chemother, 2010).

Columns and labels:
Assay type in all cases: functional, organism-based
Plasmodium falciparum [1] = test: Antimalarial activity against Plasmodium falciparum IMT Vol harboring Ppcrt M74I, N75E, K76T, A220S, Q271E, N326S mutant gene, Pmdr1 N86Y mutant gene and Pfmrp H191Y and S437A mutant gene assessed as incorporation of [3]H hypoxanthine after 48 hrs by scintillation counter
Plasmodium falciparum [2] = test: Antimalarial activity against Plasmodium falciparum IMT K14 harboring Ppcrt M74I, N75E, K76T, A220S, Q271E, N326S mutant gene, Pmdr1 Y184F, S1034C, N1042D, D1246Y mutant gene and Pfmrp H191Y and S437A mutant gene assessed as incorporation of [3]H hypoxanthine after 48 hrs by scintillation counter; conditions: IMT K14, 48 h
Plasmodium falciparum [3] = test: Antimalarial activity against Plasmodium falciparum IMT 8425 assessed as inhibition of [3H] incorporation after 48 hrs by scintillation counter
Plasmodium falciparum [4] = test: Antimalarial activity against Plasmodium falciparum IMT 31 assessed as inhibition of [3H] incorporation after 48 hrs by scintillation counter
Plasmodium falciparum [5] = test: Antimalarial activity against Plasmodium falciparum IMT Bres harboring Ppcrt M74I, N75E, K76T, A220S, Q271E, N326S and I356T mutant gene, Pmdr1 N86Y mutant gene and Pfmrp H191Y and S437A mutant gene assessed as incorporation of [3]H hypoxanthine after 48 hrs by scintillation counter
Plasmodium falciparum [6] = test: Antimalarial activity against Plasmodium falciparum IMT 10500 harboring Pfcrt Q271E mutant gene and Ppcrt I371R mutant gene and Pfnhe-1 ms4760 microsatellite mutant assessed as incorporation of [3]H hypoxanthine after 48 hrs by scintillation counter; conditions: IMT 10500, 48 h
Plasmodium falciparum [7] = test: Antimalarial activity against Plasmodium falciparum IMT K14 assessed as inhibition of [3H] incorporation after 48 hrs by scintillation counter
Plasmodium falciparum [8] = test: Antimalarial activity against Plasmodium falciparum 3D7 harboring Ppcrt I371R mutant gene and Pfnhe-1 ms4760 microsatellite mutant assessed as incorporation of [3]H hypoxanthine after 48 hrs by scintillation counter; conditions: 3D7, 48 h
Plasmodium falciparum [9] = test: Antimalarial activity against Plasmodium falciparum W2 assessed as inhibition of [3H] incorporation after 48 hrs by scintillation counter
Plasmodium falciparum [10] = test: Antimalarial activity against Plasmodium falciparum D6 harboring Ppcrt I371R mutant gene assessed as incorporation of [3]H hypoxanthine after 48 hrs by scintillation counter; conditions: D6, 48 h
Plasmodium falciparum [11] = test: Antimalarial activity against Plasmodium falciparum IMT A4 harboring Ppcrt M74I, N75E, K76T, […], Q271E, N326S and I356T mutant gene, Pmdr1 Y184F, N1042D, D1246Y mutant gene assessed as incorporation of [3]H hypoxanthine after 48 hrs by scintillation counter; conditions: IMT A4, 48 h
Plasmodium falciparum [12] = test: Antimalarial activity against Plasmodium falciparum IMT 16332 harboring Ppcrt M74I, N75E, K76T, A220S, Q271E mutant gene, Pmdr1 N86Y mutant gene assessed as incorporation of [3]H hypoxanthine after 48 hrs by scintillation counter; conditions: IMT 16332, 48 h
Plasmodium falciparum [13] = test: Antimalarial activity against Plasmodium falciparum IMT 10500 assessed as inhibition of [3H] incorporation after 48 hrs by scintillation counter
Plasmodium falciparum [14] = test: Antimalarial activity against Plasmodium falciparum W2 harboring Ppcrt M74I, N75E, K76T, A220S, Q271E, N326S and I356T mutant gene, Pmdr1 N86Y mutant gene and Pfmrp H191Y and S437A mutant gene assessed as incorporation of [3]H hypoxanthine after 48 hrs by scintillation counter; conditions: W2, 48 h
Plasmodium falciparum [15] = test: Antimalarial activity against Plasmodium falciparum PA harboring Ppcrt M74I, N75E, K76T, A220S, Q271E, N326S and I356T mutant gene, Pmdr1 N86Y mutant gene and Pfmrp H191Y and S437A mutant gene assessed as incorporation of [3]H hypoxanthine after 48 hrs by scintillation counter
Plasmodium falciparum [16] = test: Antimalarial activity against Plasmodium falciparum IMT 9881 assessed as inhibition of [3H] incorporation after 48 hrs by scintillation counter
Plasmodium falciparum [17] = test: Antimalarial activity against Plasmodium falciparum FCR3 assessed as inhibition of [3H] incorporation after 48 hrs by scintillation counter
Plasmodium falciparum [18] = test: Antimalarial activity against Plasmodium falciparum IMT A4 assessed as inhibition of [3H] incorporation after 48 hrs by scintillation counter
Plasmodium falciparum [19] = test: Antimalarial activity against Plasmodium falciparum FCM29 assessed as inhibition of [3H] incorporation after 48 hrs by scintillation counter
Plasmodium falciparum [20] = test: Antimalarial activity against Plasmodium falciparum IMT 9881 harboring Ppcrt I371R mutant gene assessed as incorporation of [3]H hypoxanthine after 48 hrs by scintillation counter; conditions: IMT 9881, 48 h
Plasmodium falciparum [21] = test: Antimalarial activity against Plasmodium falciparum IMT K4 harboring Ppcrt M74I, N75E, K76T, A220S, Q271E, N326S mutant gene, Pmdr1 S1034C, N1042D mutant gene and Pfmrp H191Y and S437A mutant gene assessed as incorporation of [3]H hypoxanthine after 48 hrs by scintillation counter; conditions: IMT K4, 48 h
Plasmodium falciparum [22] = test: Antimalarial activity against Plasmodium falciparum IMT K2 assessed as inhibition of [3H] incorporation after 48 hrs by scintillation counter
Plasmodium falciparum [23] = test: Antimalarial activity against Plasmodium falciparum HB3 harboring Ppcrt I371R mutant gene and Pfmdr1 Y184F mutant gene assessed as incorporation of [3]H hypoxanthine after 48 hrs by scintillation counter; conditions: HB3, 48 h
Plasmodium falciparum [24] = test: Antimalarial activity against Plasmodium falciparum FCR3 harboring Ppcrt M74I, N75E, K76T, A220S, Q271E, N326S and I356T mutant gene, Pmdr1 N86Y mutant gene and Pfmrp H191Y and S437A mutant gene assessed as incorporation of [3]H hypoxanthine after 48 hrs by scintillation counter; conditions: FCR3, 48 h
Plasmodium falciparum [25] = test: Antimalarial activity against Plasmodium falciparum IMT 16332 assessed as inhibition of [3H] incorporation after 48 hrs by scintillation counter
Plasmodium falciparum [26] = test: Antimalarial activity against Plasmodium falciparum PA assessed as inhibition of [3H] incorporation after 48 hrs by scintillation counter
Plasmodium falciparum [27] = test: Antimalarial activity against Plasmodium falciparum IMT Vol assessed as inhibition of [3H] incorporation after 48 hrs by scintillation counter
Plasmodium falciparum [28] = test: Antimalarial activity against Plasmodium falciparum IMT K4 assessed as inhibition of [3H] incorporation after 48 hrs by scintillation counter
Plasmodium falciparum [29] = test: Antimalarial activity against Plasmodium falciparum 3D7 assessed as inhibition of [3H] incorporation after 48 hrs by scintillation counter
Plasmodium falciparum [30] = test: Antimalarial activity against Plasmodium falciparum IMT L1 assessed as inhibition of [3H] incorporation after 48 hrs by scintillation counter
Plasmodium falciparum [31] = test: Antimalarial activity against Plasmodium falciparum FCM29 harboring Ppcrt M74I, N75E, K76T, A220S, Q271E, N326S and I356T mutant gene, Pmdr1 N86Y mutant gene and Pfmrp H191Y and S437A mutant gene assessed as incorporation of [3]H hypoxanthine after 48 hrs by scintillation counter; conditions: FCM29, 48 h
Plasmodium falciparum [32] = test: Antimalarial activity against Plasmodium falciparum 106/1 harboring Ppcrt M74I, N75E, K76T, A220S, Q271E, N326S and I356T mutant gene, Pmdr1 N86Y mutant gene and Pfmrp H191Y and S437A mutant gene assessed as incorporation of [3]H hypoxanthine after 48 hrs by scintillation counter; conditions: 106/1, 48 h
Plasmodium falciparum [33] = test: Antimalarial activity against Plasmodium falciparum D6 assessed as inhibition of [3H] incorporation after 48 hrs by scintillation counter
Plasmodium falciparum [34] = test: Antimalarial activity against Plasmodium falciparum IMT 8425 harboring Ppcrt I371R mutant gene and Pfnhe-1 ms4760 microsatellite mutant assessed as incorporation of [3]H hypoxanthine after 48 hrs by scintillation counter; conditions: IMT 8425, 48 h
Plasmodium falciparum [35] = test: Antimalarial activity against Plasmodium falciparum IMT Bres assessed as inhibition of [3H] incorporation after 48 hrs by scintillation counter
Plasmodium falciparum [36] = test: Antimalarial activity against Plasmodium falciparum IMT L1 harboring Ppcrt M74I, N75E, K76T, A220S, Q271E mutant gene, Pmdr1 N86Y mutant gene and Pfmrp H191Y and S437A mutant gene assessed as incorporation of [3]H hypoxanthine after 48 hrs by scintillation counter; conditions: IMT L1, 48 h
Plasmodium falciparum [37] = test: Antimalarial activity against Plasmodium falciparum IMT 10336 harboring Pfcrt Q271E mutant gene and Ppcrt I371R mutant gene assessed as incorporation of [3]H hypoxanthine after 48 hrs by scintillation counter; conditions: IMT 10336, 48 h
Plasmodium falciparum [38] = test: Antimalarial activity against Plasmodium falciparum IMT Guy harboring Ppcrt K76T, A220S, N326D and I371R mutant gene, Pmdr1 […], 1042D and D1246Y, mutant gene and Pfmrp H191Y and S437A mutant gene and Pfnhe-1 ms4760 microsatellite mutant assessed as incorporation of [3]H hypoxanthine after 48 hrs by scintillation counter
Plasmodium falciparum [39] = test: Antimalarial activity against Plasmodium falciparum IMT 10354 assessed as inhibition of [3H] incorporation after 48 hrs by scintillation counter
Plasmodium falciparum [40] = test: Antimalarial activity against Plasmodium falciparum IMT 10336 assessed as inhibition of [3H] incorporation after 48 hrs by scintillation counter
Plasmodium falciparum [41] = test: Antimalarial activity against Plasmodium falciparum IMT K2 harboring Ppcrt M74I, N75E, K76T, A220S, Q271E, N326S mutant gene, Pmdr1 S1034C, N1042D mutant gene and Pfmrp H191Y and S437A mutant gene assessed as incorporation of [3]H hypoxanthine after 48 hrs by scintillation counter; conditions: IMT K2, 48 h
Plasmodium falciparum [42] = test: Antimalarial activity against Plasmodium falciparum IMT 31 harboring Ppcrt I371R mutant gene assessed as incorporation of [3]H hypoxanthine after 48 hrs by scintillation counter; conditions: IMT 31, 48 h
Plasmodium falciparum [43] = test: Antimalarial activity against Plasmodium falciparum IMT 10354 harboring Ppcrt M74I, N75E, K76T, A220S mutant gene, Pmdr1 D1246Y mutant gene assessed as incorporation of [3]H hypoxanthine after 48 hrs by scintillation counter; conditions: IMT 10354, 48 h

For `C[C@H]1[C@@H](O)O[C@@H]2O[C@@]3(C)CC[C@H]4[C@H](C)CC[C@@H]1[C@@]24OO3` [ARTENIMOL], the IC50 (Plasmodium falciparum [1]) was 1.2 nM, the IC50 (Plasmodium falciparum [2]) was 2.1 nM and the IC50 (Plasmodium falciparum [3]) was 0.0017 µM. The IC50 (Plasmodium falciparum [4]) was 1.7 nM, the IC50 (Plasmodium falciparum [5]) was 1.4 nM and the IC50 (Plasmodium falciparum [6]) was 3.3 nM. The IC50 (Plasmodium falciparum [7]) was 0.0021 µM, the IC50 (Plasmodium falciparum [8]) was 2.8 nM and the IC50 (Plasmodium falciparum [9]) was 3 nM. The IC50 (Plasmodium falciparum [10]) was 1.4 nM, the IC50 (Plasmodium falciparum [11]) was 1.5 nM and the IC50 (Plasmodium falciparum [12]) was 1.1 nM. For the same compound, the IC50 (Plasmodium falciparum [13]) was 3.3 nM, the IC50 (Plasmodium falciparum [14]) was 3 nM and the IC50 (Plasmodium falciparum [15]) was 1.4 nM. For the same compound, the IC50 (Plasmodium falciparum [16]) was 0.0035 µM, the IC50 (Plasmodium falciparum [17]) was 1.6 nM and the IC50 (Plasmodium falciparum [18]) was 0.0015 µM. The IC50 (Plasmodium falciparum [19]) was 0.0013 µM, the IC50 (Plasmodium falciparum [20]) was 3.5 nM and the IC50 (Plasmodium falciparum [21]) was 3.4 nM. It also gave an IC50 (Plasmodium falciparum [22]) of 1.2 nM, an IC50 (Plasmodium falciparum [23]) of 3 nM and an IC50 (Plasmodium falciparum [24]) of 1.6 nM. The IC50 (Plasmodium falciparum [25]) was 0.0011 µM, the IC50 (Plasmodium falciparum [26]) was 1.4 nM and the IC50 (Plasmodium falciparum [27]) was 0.0012 µM. It also gave an IC50 (Plasmodium falciparum [28]) of 0.0034 µM, an IC50 (Plasmodium falciparum [29]) of 2.8 nM and an IC50 (Plasmodium falciparum [30]) of 0.9 nM. For the same compound, the IC50 (Plasmodium falciparum [31]) was 1.3 nM, the IC50 (Plasmodium falciparum [32]) was 5.8 nM and the IC50 (Plasmodium falciparum [33]) was 1.4 nM. It also gave an IC50 (Plasmodium falciparum [34]) of 1.7 nM, an IC50 (Plasmodium falciparum [35]) of 1.4 nM and an IC50 (Plasmodium falciparum [36]) of 0.9 nM. The IC50 (Plasmodium falciparum [37]) was 1.6 nM, the IC50 (Plasmodium falciparum [38]) was 1.8 nM and the IC50 (Plasmodium falciparum [39]) was 0.4 nM. For the same compound, the IC50 (Plasmodium falciparum [40]) was 1.6 nM, the IC50 (Plasmodium falciparum [41]) was 1.2 nM and the IC50 (Plasmodium falciparum [42]) was 1.7 nM. It also gave an IC50 (Plasmodium falciparum [43]) of 0.4 nM.
In the case of `C[C@H]1c2cccc(O)c2C(=O)C2=C(O)[C@]3(O)C(=O)C(C(N)=O)=C(O)[C@@H](N(C)C)[C@@H]3[C@@H](O)[C@@H]21` [DOXYCYCLINE], the IC50 (Plasmodium falciparum [3]) is reported as 10.9 µM, the IC50 (Plasmodium falciparum [7]) is reported as 11.5 µM and the IC50 (Plasmodium falciparum [16]) is reported as 8.7 µM. It also gave an IC50 (Plasmodium falciparum [18]) of 9.2 µM, an IC50 (Plasmodium falciparum [19]) of 11.6 µM and an IC50 (Plasmodium falciparum [25]) of 13.7 µM. The IC50 (Plasmodium falciparum [27]) was 9.1 µM, the IC50 (Plasmodium falciparum [28]) was 10.2 µM and the IC50 (Plasmodium falciparum [39]) was 4600 nM.
